Drawing on PubChem BioAssay AID1259407 (Chemical Carcinogenesis Research Information System (CCRIS), 2018), this text covers mutagenic call for six compounds.

For this series, the system named is CCRIS mutagenicity, Ames/micronucleus/aberration tests. The series is described as follows: CCRIS mutagenicity studies.
The mark [1] stands for this setting: Test System: AMES SALMONELLA TYPHIMURIUM, Strain/Indicator: TA98, Metabolic Activation: HAMSTER, LIVER, S-9, AROCLOR 1254 (10%), Method: PREINCUBATION
[2] abbreviates: Test System: AMES SALMONELLA TYPHIMURIUM, Strain/Indicator: TA98, Metabolic Activation: NONE, Method: PREINCUBATION
The mark [3] stands for this setting: Test System: AMES SALMONELLA TYPHIMURIUM, Strain/Indicator: TA98, Metabolic Activation: RAT, LIVER, S-9, AROCLOR 1254 (10%), Method: PREINCUBATION
[4] abbreviates: Test System: AMES SALMONELLA TYPHIMURIUM, Strain/Indicator: TA100, Metabolic Activation: HAMSTER, LIVER, S-9, AROCLOR 1254 (10%), Method: PREINCUBATION
Where [5] appears, read: Test System: AMES SALMONELLA TYPHIMURIUM, Strain/Indicator: TA100, Metabolic Activation: NONE, Method: PREINCUBATION
Where [6] appears, read: Test System: AMES SALMONELLA TYPHIMURIUM, Strain/Indicator: TA100, Metabolic Activation: RAT, LIVER, S-9, AROCLOR 1254 (10%), Method: PREINCUBATION
[7] abbreviates: Test System: AMES SALMONELLA TYPHIMURIUM, Strain/Indicator: TA1535, Metabolic Activation: HAMSTER, LIVER, S-9, AROCLOR 1254 (10%), Method: PREINCUBATION
The mark [8] stands for this setting: Test System: AMES SALMONELLA TYPHIMURIUM, Strain/Indicator: TA1535, Metabolic Activation: NONE, Method: PREINCUBATION
[9] abbreviates: Test System: AMES SALMONELLA TYPHIMURIUM, Strain/Indicator: TA1535, Metabolic Activation: RAT, LIVER, S-9, AROCLOR 1254 (10%), Method: PREINCUBATION
Setting [10] is: Test System: AMES SALMONELLA TYPHIMURIUM, Strain/Indicator: TA1537, Metabolic Activation: HAMSTER, LIVER, S-9, AROCLOR 1254 (10%), Method: PREINCUBATION
Where [11] appears, read: Test System: AMES SALMONELLA TYPHIMURIUM, Strain/Indicator: TA1537, Metabolic Activation: NONE, Method: PREINCUBATION
Where [12] appears, read: Test System: AMES SALMONELLA TYPHIMURIUM, Strain/Indicator: TA1537, Metabolic Activation: RAT, LIVER, S-9, AROCLOR 1254 (10%), Method: PREINCUBATION
Where [13] appears, read: Test System: AMES SALMONELLA TYPHIMURIUM, Strain/Indicator: TA98, Metabolic Activation: RAT, LIVER, S-9, AROCLOR 1254, Method: STANDARD PLATE.
Where [14] appears, read: Test System: AMES SALMONELLA TYPHIMURIUM, Strain/Indicator: TA100, Metabolic Activation: RAT, LIVER, S-9, AROCLOR 1254, Method: STANDARD PLATE.

“Also recorded” adds a separate entry of the source. Active and inactive are the calls of the source. How the calls were made is not given here.

For the compound `NS(=O)(=O)c1cc(C(=O)O)c(NCc2ccco2)cc1Cl`, the mutagenic call by setting is: (End Point: IN VITRO CHROMOSOMAL ABERRATIONS, Test System: CHO CELLS, Metabolic Activation: NONE) “active; positive; precipitation occurred at 3750 and 5000 ug/ml; also recorded: active; positive; precipitation occurred at 2513 ug/ml”; (End Point: IN VITRO CHROMOSOMAL ABERRATIONS, Test System: CHO CELLS, Metabolic Activation: RAT, LIVER, S-9, AROCLOR 1254) “active; positive; precipitation occurred at all doses”; under setting [1], “inactive; negative”; (Test System: AMES SALMONELLA TYPHIMURIUM, Strain/Indicator: TA98, Metabolic Activation: HAMSTER, LIVER, S-9, AROCLOR 1254, Method: PREINCUBATION) “inactive; negative”; under setting [2], “inactive; negative”; under setting [3], “inactive; negative”. The mutagenic call runs as follows: (Test System: AMES SALMONELLA TYPHIMURIUM, Strain/Indicator: TA98, Metabolic Activation: RAT, LIVER, S-9, AROCLOR 1254, Method: PREINCUBATION) “inactive; negative”; under setting [4], “inactive; negative”; (Test System: AMES SALMONELLA TYPHIMURIUM, Strain/Indicator: TA100, Metabolic Activation: HAMSTER, LIVER, S-9, AROCLOR 1254, Method: PREINCUBATION) “inactive; negative”; under setting [5], “inactive; negative”; under setting [6], “inactive; negative”; (Test System: AMES SALMONELLA TYPHIMURIUM, Strain/Indicator: TA100, Metabolic Activation: RAT, LIVER, S-9, AROCLOR 1254, Method: PREINCUBATION) “inactive; negative”. In addition, the mutagenic call under setting [7] is “inactive; negative”; the mutagenic call (Test System: AMES SALMONELLA TYPHIMURIUM, Strain/Indicator: TA1535, Metabolic Activation: HAMSTER, LIVER, S-9, AROCLOR 1254, Method: PREINCUBATION) was “inactive; negative”; the mutagenic call under setting [8] is “inactive; negative”; the mutagenic call under setting [9] is “inactive; negative”; the mutagenic call (Test System: AMES SALMONELLA TYPHIMURIUM, Strain/Indicator: TA1535, Metabolic Activation: RAT, LIVER, S-9, AROCLOR 1254, Method: PREINCUBATION) is “inactive; negative”; the mutagenic call under setting [10] is “inactive; negative”. Besides, the mutagenic call runs as follows: (Test System: AMES SALMONELLA TYPHIMURIUM, Strain/Indicator: TA1537, Metabolic Activation: HAMSTER, LIVER, S-9, AROCLOR 1254, Method: PREINCUBATION) “inactive; negative”; under setting [11], “inactive; negative”; under setting [12], “inactive; negative”; (Test System: AMES SALMONELLA TYPHIMURIUM, Strain/Indicator: TA1537, Metabolic Activation: RAT, LIVER, S-9, AROCLOR 1254, Method: PREINCUBATION) “inactive; negative”; (Test System: MOUSE LYMPHOMA, Strain/Indicator: L5178Y (TK+/TK-), Metabolic Activation: NONE, Method: SUSPENSION/PLATE) “inactive; negative”; (Test System: MOUSE LYMPHOMA, Strain/Indicator: L5178Y (TK+/TK-), Metabolic Activation: RAT, LIVER, S-9, AROCLOR 1254, Method: SUSPENSION/PLATE) “active; positive”.
Consider `C1CCC(C2(C3CCCCC3)COCCOCCOCCOCCOCCOCCO2)CC1`, for which the mutagenic call reads like this: (Test System: AMES SALMONELLA TYPHIMURIUM, Strain/Indicator: TA98, Metabolic Activation: NONE, Method: STANDARD PLATE) “inactive; negative”; under setting [13], “inactive; negative”; (Test System: AMES SALMONELLA TYPHIMURIUM, Strain/Indicator: TA100, Metabolic Activation: NONE, Method: STANDARD PLATE) “inactive; negative”; under setting [14], “inactive; negative”; (Test System: AMES SALMONELLA TYPHIMURIUM, Strain/Indicator: TA1530, Metabolic Activation: NONE, Method: STANDARD PLATE) “inactive; negative”; (Test System: AMES SALMONELLA TYPHIMURIUM, Strain/Indicator: TA1530, Metabolic Activation: RAT, LIVER, S-9, AROCLOR 1254, Method: STANDARD PLATE) “inactive; negative”. The mutagenic call runs as follows: (Test System: AMES SALMONELLA TYPHIMURIUM, Strain/Indicator: TA1537, Metabolic Activation: NONE, Method: STANDARD PLATE) “inactive; negative”; (Test System: AMES SALMONELLA TYPHIMURIUM, Strain/Indicator: TA1537, Metabolic Activation: RAT, LIVER, S-9, AROCLOR 1254, Method: STANDARD PLATE) “inactive; negative”.
As to `CC(=O)[O][Hg][c]1ccccc1`, the mutagenic call is, setting by setting: under setting [1], “inactive; negative”; under setting [2], “inactive; negative”; under setting [3], “inactive; negative”; under setting [4], “inactive; negative”; under setting [5], “inactive; negative”; under setting [6], “inactive; negative”. In addition, the mutagenic call was “inactive; negative” under setting [7]; “inactive; negative” under setting [8]; “inactive; negative” under setting [9]; “inactive; negative” under setting [10]; “inactive; negative” under setting [11]; “inactive; negative” under setting [12].
As to `CC(=O)Nc1cc2c(cc1O)-c1ccccc1C2`, the mutagenic call under setting [13] is “inactive; negative”.
For `COc1ccc2cc1Oc1ccc(cc1)C[C@H]1c3c(cc4c(c3Oc3cc5c(cc3OC)CCN(C)[C@@H]5C2)OCO4)CCN1C`, the mutagenic call under setting [2] was “inactive; negative”; the mutagenic call (Test System: AMES SALMONELLA TYPHIMURIUM, Strain/Indicator: TA98, Metabolic Activation: RAT LIVER S-9, PHENOBARBITAL, 5,6-BENZOFLAVONE, Method: PREINCUBATION) is “active; positive”; the mutagenic call under setting [5] is “inactive; negative”; the mutagenic call (Test System: AMES SALMONELLA TYPHIMURIUM, Strain/Indicator: TA100, Metabolic Activation: RAT LIVER S-9, PHENOBARBITAL, 5,6-BENZOFLAVONE, Method: PREINCUBATION) was “active; positive”; the mutagenic call under setting [8] was “inactive; negative”; the mutagenic call (Test System: AMES SALMONELLA TYPHIMURIUM, Strain/Indicator: TA1535, Metabolic Activation: RAT LIVER S-9, PHENOBARBITAL, 5,6-BENZOFLAVONE, Method: PREINCUBATION) was “active; positive”. In addition, the mutagenic call is “inactive; negative” under setting [11]; “active; positive” (Test System: AMES SALMONELLA TYPHIMURIUM, Strain/Indicator: TA1537, Metabolic Activation: RAT LIVER S-9, PHENOBARBITAL, 5,6-BENZOFLAVONE, Method: PREINCUBATION); “inactive; negative” (Test System: ESCHERICHIA COLI, Strain/Indicator: WP2 UVR A, Metabolic Activation: NONE, Method: PREINCUBATION); “inactive; negative” (Test System: ESCHERICHIA COLI, Strain/Indicator: WP2 UVR A, Metabolic Activation: RAT LIVER S-9, PHENOBARBITAL, 5,6-BENZOFLAVONE, Method: PREINCUBATION); “active; positive” (Test System: UDS RAT HEPATOCYTES, Strain/Indicator: THYMIDINE INCORPORATION, Metabolic Activation: NONE, Method: AUTORADIOGRAPHY).
With `O=S(=O)(O)c1ccc2ccc3cccc4ccc1c2c34`, the mutagenic call under setting [13] was “inactive; negative” and the mutagenic call under setting [14] is “active; positive”.
